According to article PMC9226319, “Peripherally restricted transthyretin-based delivery system for probes and therapeutics avoiding opioid-related side effects” (Nature Communications, 2022):
Where “and” joins values, the source holds several entries; their conditions need not be identical. Identical values can stand only once. Like-named read-outs stand apart in the source and are kept apart here.

How the values were obtained:
holo-RBP-TTR interaction = holo-RBP-TTR interaction (Homo sapiens, UniProt P02766); test: Effect on holo-RBP-TTR interaction in human serum (cross-linking, Western blot); details: human serum, quantified from gel image, replicates (Supp Fig.14b)
purified human TTR = purified human TTR (Homo sapiens, UniProt P02766); test: Fluorescence polarization (FP) binding assay, ligands to TTR in buffer
TTR in human serum = TTR in human serum (Homo sapiens, UniProt P02766); test: TTR serum fluorescent probe exclusion (FPE) selectivity assay; format: binding; details: ligand 10 µM; for %FPE probe fluorescence: human serum, replicates
[1] = target: human mu-opioid receptors (Homo sapiens, UniProt P35372); test: biochemical; format: binding; details: binding affinity to mu-opioid receptor (Ki)
Chain of human mu-opioid receptors (P35372 whole entry): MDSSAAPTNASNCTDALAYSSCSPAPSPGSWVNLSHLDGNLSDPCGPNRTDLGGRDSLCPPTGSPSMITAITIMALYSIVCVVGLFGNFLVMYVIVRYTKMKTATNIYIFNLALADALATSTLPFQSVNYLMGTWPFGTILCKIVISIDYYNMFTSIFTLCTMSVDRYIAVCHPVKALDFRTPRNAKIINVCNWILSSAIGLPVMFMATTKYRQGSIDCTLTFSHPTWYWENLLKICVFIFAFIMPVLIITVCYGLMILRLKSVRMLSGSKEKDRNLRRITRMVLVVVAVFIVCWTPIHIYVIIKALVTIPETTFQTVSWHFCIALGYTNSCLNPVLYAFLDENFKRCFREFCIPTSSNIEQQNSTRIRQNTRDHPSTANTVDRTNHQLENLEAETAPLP

[2] = target: T1, delta-opioid receptor (human) (Homo sapiens, UniProt P41143); test: Human delta-opioid receptor (agonist radioligand [3H]-DADLE) binding assay; details: for % Inhibition of Control Specific Binding: delta-opioid receptor binding, replicates 1st/2nd
T1 construct: Eurofins Cerep (France)
T1 sequence (P41143 whole entry): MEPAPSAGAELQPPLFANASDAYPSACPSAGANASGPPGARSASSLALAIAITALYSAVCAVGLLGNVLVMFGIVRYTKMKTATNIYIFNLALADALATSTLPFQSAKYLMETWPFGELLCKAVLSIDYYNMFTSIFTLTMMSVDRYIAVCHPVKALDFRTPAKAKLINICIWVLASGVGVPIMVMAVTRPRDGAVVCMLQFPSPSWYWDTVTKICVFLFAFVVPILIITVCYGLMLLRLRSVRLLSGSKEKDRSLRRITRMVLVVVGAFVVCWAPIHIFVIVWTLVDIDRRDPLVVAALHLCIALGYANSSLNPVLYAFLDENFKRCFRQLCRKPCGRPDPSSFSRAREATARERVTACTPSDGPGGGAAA

[3] = target: T2, kappa opioid receptor (rat) (Rattus norvegicus, UniProt P34975); test: Rat kappa-opioid receptor (agonist radioligand [3H] U 69593) binding assay; details: for % Inhibition of Control Specific Binding: kappa-opioid receptor binding, replicates 1st/2nd
T2 construct: Eurofins Cerep (France)
T2 sequence (P34975 whole entry): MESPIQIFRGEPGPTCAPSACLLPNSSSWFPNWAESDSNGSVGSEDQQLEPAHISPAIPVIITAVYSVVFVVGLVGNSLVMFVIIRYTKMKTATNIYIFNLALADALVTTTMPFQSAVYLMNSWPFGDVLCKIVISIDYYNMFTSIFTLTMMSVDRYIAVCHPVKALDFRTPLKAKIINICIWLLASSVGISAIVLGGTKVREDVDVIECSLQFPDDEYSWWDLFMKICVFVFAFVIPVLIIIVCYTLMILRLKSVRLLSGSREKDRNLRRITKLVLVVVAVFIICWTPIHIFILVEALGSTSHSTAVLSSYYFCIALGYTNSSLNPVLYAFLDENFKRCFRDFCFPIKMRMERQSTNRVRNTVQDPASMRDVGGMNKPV

male Sprague-Dawley rats [4] = test: Gastrointestinal (GI) transit (charcoal meal) assays; format: in vivo, rat; details: rat, in vivo
[5] = for Concentration: subcutaneous 15.9 μmole/kg, individual animals
male Sprague-Dawley rats [6] = details: rat, in vivo
in vivo [7] = details: male, Sprague Dawley, rat, sc
in vivo [8] = details: male, Sprague Dawley, rat, sc; remark: listed apart in the source

## NC(N)=O [Urea]
holo-RBP-TTR interaction
  %holo RBP binding to TTR: 98.7% and 127% and 74.3%

## NC(Cc1cc(I)c(Oc2cc(I)c(O)c(I)c2)c(I)c1)C(=O)O (centres unmarked) [Thyroxine]
holo-RBP-TTR interaction
  %holo RBP binding to TTR: 7.1% and 6.9% and 6%

## COc1ccc2c3c1O[C@H]1[C@@H](OCc4cn(CCNCCCCCCOc5cc(OCCCc6c(C)n[nH]c6C)cc(C(=O)O)c5)nn4)CC[C@@]4(O)[C@@H](C2)N(C)CC[C@]314 [AG10-L2-Oxy]
Purified human TTR; log [nM] inhibitor 0.990
  % Fluorescence polarization (mean): 100.000%
Purified human TTR; log [nM] inhibitor 1.291
  % Fluorescence polarization (mean): 102.820%
Purified human TTR; log [nM] inhibitor 1.592
  % Fluorescence polarization (mean): 102.360%
Purified human TTR; log [nM] inhibitor 1.893
  % Fluorescence polarization (mean): 99.420%
Purified human TTR; log [nM] inhibitor 2.194
  % Fluorescence polarization (mean): 100.060%
Purified human TTR; log [nM] inhibitor 2.495
  % Fluorescence polarization (mean): 94.250%
Purified human TTR; log [nM] inhibitor 2.796
  % Fluorescence polarization (mean): 77.990%
Purified human TTR; log [nM] inhibitor 3.097
  % Fluorescence polarization (mean): 63.730%
Purified human TTR; log [nM] inhibitor 3.398
  % Fluorescence polarization (mean): 48.160%
Purified human TTR; log [nM] inhibitor 3.699
  % Fluorescence polarization (mean): 35.010%
Purified human TTR; log [nM] inhibitor 4.000
  % Fluorescence polarization (mean): 21.890%
Purified human TTR; log [nM] inhibitor […]
  % Fluorescence polarization (mean): 0.000%
TTR in human serum; FPE probe 3.6 µM, 3 h reading relative to probe alone, text mean ± s.d., table replicates
  % TTR occupancy in human serum: 66.15% and 66.78% and 69.04% and 66.00%
TTR in human serum; time 0.000 h
  %FPE probe fluorescence: 0.000%
TTR in human serum; time 0.083 h
  %FPE probe fluorescence: 0.549% and 0.762% and -1.844% and -1.645%
TTR in human serum; time 0.250 h
  %FPE probe fluorescence: 0.706% and 1.255% and -0.116% and -0.642%
TTR in human serum; time 0.500 h
  %FPE probe fluorescence: 2.826% and 3.272% and 3.466% and 3.115%
TTR in human serum; time 1.000 h
  %FPE probe fluorescence: 4.537% and 7.078% and 8.406% and 7.892%
TTR in human serum; time 1.250 h
  %FPE probe fluorescence: 9.016% and 10.868% and 10.718% and 11.974%
TTR in human serum; time 1.500 h
  %FPE probe fluorescence: 11.997% and 15.126% and 11.024% and 13.206%
TTR in human serum; time 1.750 h
  %FPE probe fluorescence: 15.076% and 17.659% and 14.693% and 18.815%
TTR in human serum; time 2.000 h
  %FPE probe fluorescence: 19.358% and 21.045% and 18.427% and 21.877%
TTR in human serum; time 2.250 h
  %FPE probe fluorescence: 25.163% and 23.487% and 22.045% and 24.539%
TTR in human serum; time 2.500 h
  %FPE probe fluorescence: 25.806% and 27.529% and 26.249% and 27.302%
TTR in human serum; time 2.750 h
  %FPE probe fluorescence: 30.929% and 30.377% and 27.371% and 30.854%
TTR in human serum; time 3.000 h
  %FPE probe fluorescence: 33.853% and 33.219% and 30.957% and 33.996%
TTR in human serum; time 3.500 h
  %FPE probe fluorescence: 39.372% and 39.356% and 37.472% and 40.606%
TTR in human serum; time 3.750 h
  %FPE probe fluorescence: 41.871% and 41.320% and 39.536% and 41.800%
TTR in human serum; time 4.000 h
  %FPE probe fluorescence: 43.406% and 44.388% and 42.775% and 45.047%
TTR in human serum; time 4.250 h
  %FPE probe fluorescence: 46.096% and 46.093% and 44.165% and 46.692%
TTR in human serum; time 4.500 h
  %FPE probe fluorescence: 48.403% and 48.011% and 46.251% and 48.352%
TTR in human serum; time 4.750 h
  %FPE probe fluorescence: 49.977% and 52.633% and 49.006% and 51.062%
TTR in human serum; time 5.000 h
  %FPE probe fluorescence: 52.730% and 52.156% and 49.883% and 52.401%
TTR in human serum; time 5.250 h
  %FPE probe fluorescence: 54.499% and 55.931% and 51.647% and 54.573%
TTR in human serum; time 5.500 h
  %FPE probe fluorescence: 56.002% and 55.963% and 54.625% and 55.846%
TTR in human serum; time 5.750 h
  %FPE probe fluorescence: 57.400% and 57.044% and 54.205% and 59.081%
TTR in human serum; time 6.000 h
  %FPE probe fluorescence: 57.353% and 57.260% and 55.092% and 59.796%
[1]
  Ki: 13 nM
[2]; [3H]-DADLE displacement, read-out: binding affinity to delta-opioid receptor (Ki)
  Ki: 410 nM
[2]; 1.0E-06 M
  % Inhibition of Control Specific Binding: 50.5% and 49.9%
[2]; 1.0E-07 M
  % Inhibition of Control Specific Binding: 14.8% and 19.2%
[2]; 1.0E-08 M
  % Inhibition of Control Specific Binding: 1.2% and -2.9%
[2]; 1.0E-09 M
  % Inhibition of Control Specific Binding: -6.1% and -3.7%
[2]; 2.0E-06 M
  % Inhibition of Control Specific Binding: 65.5% and 63.4%
[3]; [3H] U 69593 displacement, read-out: binding affinity to kappa-opioid receptor (Ki)
  Ki: 120 nM
[3]; 1.0E-06 M
  % Inhibition of Control Specific Binding: 78.6% and 74.5%
[3]; 1.0E-07 M
  % Inhibition of Control Specific Binding: 32.2% and 33.7%
[3]; 1.0E-08 M
  % Inhibition of Control Specific Binding: 1.0% and 5.5%
[3]; 1.0E-09 M
  % Inhibition of Control Specific Binding: -3.9% and 9.9%
[3]; 2.0E-06 M
  % Inhibition of Control Specific Binding: 85.0% and 84.1%
Male Sprague-Dawley rats [4]
  GI transit (% of vehicle): 9.5 ± 2.8%
  GI transit as % of vehicle group: 9.19% and 12.07% and 6.37% and 7.14% and 12.52%
Male Sprague-Dawley rats [4]; sc
  GI transit (% of vehicle): 89.5 ± 3.0%
  GI transit as % of vehicle group: 86.23% and 92.53% and 87.21% and 92.83% and 88.77%
[5]; rat, single SC dose 16 µmol/kg
  k: 0.15 ± 0.02 h⁻¹
[5]; time 0.03 h
  Concentration: 1980.92 nM and 1419.06 nM and 1694.61 nM
[5]; time 0.5 h
  Concentration: 6994.54 nM and 3873.66 nM and 4264.25 nM
[5]; time 0.75 h
  Concentration: 6976.39 nM and 5017.1 nM and 7890.95 nM
[5]; time 1 h
  Concentration: 6606.43 nM and 5966.57 nM and 8438.91 nM
[5]; time 2 h
  Concentration: 5069.67 nM and 5721.19 nM and 8480.16 nM
[5]; time 4 h
  Concentration: 2353.83 nM and 3068.56 nM and 2535.48 nM
[5]; time 6 h
  Concentration: 732.498 nM and 360.453 nM and 640.073 nM and 668.521 nM
[5]; time 8 h
  Concentration: 132.069 nM and 207.97 nM and 223.861 nM
[5]; time 12 h
  Concentration: 78.9419 nM and 35.0657 nM and 62.9969 nM and 75.6407 nM
[5]; time 24 h
  Concentration: 12.92 nM and 13.41 nM and 14.17 nM
Male Sprague-Dawley rats [6]
  hot plate latency: 54.2 ± 4.8 s
Male Sprague-Dawley rats [6]; sc
  hot plate latency: 9.5 ± 0.8 s
In vivo [7]; percentage CSF to plasma ratio
  Kp: 0
In vivo [7]; percentage brain to plasma ratio
  Kp: 0
In vivo [8]; 15.9 μmole/kg, Concentration, subcutaneous 15.9 μmole/kg, time 0.03 h, individual animals
  concentration at 0.03 h: 1340 nM
In vivo [8]; 15.9 μmole/kg, Concentration, subcutaneous 15.9 μmole/kg, time 0.5 h, individual animals
  concentration at 0.5 h: 4.74 µM
In vivo [8]; 15.9 μmole/kg, Concentration, subcutaneous 15.9 μmole/kg, time 0.75 h, individual animals
  concentration at 0.75 h: 4.8 µM
In vivo [8]; 15.9 μmole/kg, Concentration, subcutaneous 15.9 μmole/kg, time 1 h, individual animals
  concentration at 1 h: 6.68 µM
In vivo [8]; 15.9 μmole/kg, Concentration, subcutaneous 15.9 μmole/kg, time 2 h, individual animals
  concentration at 2 h: 7.09 µM
In vivo [8]; 15.9 μmole/kg, Concentration, subcutaneous 15.9 μmole/kg, time 4 h, individual animals
  concentration at 4 h: 2750 nM
In vivo [8]; 15.9 μmole/kg, Concentration, subcutaneous 15.9 μmole/kg, time 8 h, individual animals
  concentration at 8 h: 196 nM
In vivo [8]; 15.9 μmole/kg, Concentration, subcutaneous 15.9 μmole/kg, time 24 h, individual animals
  concentration at 24 h: 18.7 nM
In vivo [8]; 16 umol/kg
  AUC(0-inf): 25.8 ± 3.09 µM·h
  CL/F: 10.3 mL/min/kg
  Vd/F: 4.22 ± 0.86 L/kg
  half-life: 281 ± 31.2 min
